Measurements from US20230295119A1, “SUBSTITUTED PYRIDINES FOR THE TREATMENT OF INFLAMMATORY DISEASES” (GOSSAMER BIO SERVICES, INC., priority 2020, published 2023).
Like-named read-outs stand apart in the source and are kept apart here.

Columns and labels:
[1] = target: human JAK1 (Homo sapiens (Human), UniProt P23458); test: JAK1 TR-FRET kinase assay; assay type: biochemical; details: TR-FRET, JAK1 2.5 nM
[2] = target: human JAK2 (Homo sapiens (Human), UniProt O60674); test: JAK2 TR-FRET kinase assay; assay type: biochemical; details: JAK2 0.025 nM
human JAK2, sequence (O60674 whole entry, the tested form may be a part): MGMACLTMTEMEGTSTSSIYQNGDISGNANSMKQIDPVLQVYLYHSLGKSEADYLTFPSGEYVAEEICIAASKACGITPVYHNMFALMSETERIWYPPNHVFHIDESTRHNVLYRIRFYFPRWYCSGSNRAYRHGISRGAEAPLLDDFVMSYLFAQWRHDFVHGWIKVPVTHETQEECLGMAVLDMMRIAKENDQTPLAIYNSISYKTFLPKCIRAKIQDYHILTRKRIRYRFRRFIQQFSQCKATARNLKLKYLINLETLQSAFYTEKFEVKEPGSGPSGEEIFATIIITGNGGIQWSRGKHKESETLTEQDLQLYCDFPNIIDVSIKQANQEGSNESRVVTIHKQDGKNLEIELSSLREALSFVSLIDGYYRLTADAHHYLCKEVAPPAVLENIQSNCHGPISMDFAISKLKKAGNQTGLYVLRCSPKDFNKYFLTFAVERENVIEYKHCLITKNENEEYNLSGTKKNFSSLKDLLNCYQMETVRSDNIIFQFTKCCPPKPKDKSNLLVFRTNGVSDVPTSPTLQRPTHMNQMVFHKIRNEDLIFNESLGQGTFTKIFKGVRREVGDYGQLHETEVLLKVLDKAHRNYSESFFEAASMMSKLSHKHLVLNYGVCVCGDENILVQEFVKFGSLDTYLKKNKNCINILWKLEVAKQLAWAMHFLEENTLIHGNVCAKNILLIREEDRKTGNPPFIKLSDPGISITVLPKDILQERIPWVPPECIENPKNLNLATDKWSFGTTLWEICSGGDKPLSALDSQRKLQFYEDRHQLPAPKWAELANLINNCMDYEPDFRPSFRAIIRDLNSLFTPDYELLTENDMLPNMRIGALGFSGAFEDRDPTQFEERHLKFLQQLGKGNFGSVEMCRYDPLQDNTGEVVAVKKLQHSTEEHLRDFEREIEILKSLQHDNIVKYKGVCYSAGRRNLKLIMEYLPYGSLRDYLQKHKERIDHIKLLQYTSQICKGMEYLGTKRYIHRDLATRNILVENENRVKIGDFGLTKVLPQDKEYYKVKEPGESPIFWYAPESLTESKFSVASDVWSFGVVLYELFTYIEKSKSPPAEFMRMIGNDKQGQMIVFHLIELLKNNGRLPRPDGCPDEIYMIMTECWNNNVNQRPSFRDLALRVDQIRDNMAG

[3] = target: TYK2 JH2 domain (Homo sapiens (Human), UniProt P29597); test: TYK2 JH2 NanoBRET assay; assay type: binding
TYK2 JH2 domain, sequence (P29597 589-875): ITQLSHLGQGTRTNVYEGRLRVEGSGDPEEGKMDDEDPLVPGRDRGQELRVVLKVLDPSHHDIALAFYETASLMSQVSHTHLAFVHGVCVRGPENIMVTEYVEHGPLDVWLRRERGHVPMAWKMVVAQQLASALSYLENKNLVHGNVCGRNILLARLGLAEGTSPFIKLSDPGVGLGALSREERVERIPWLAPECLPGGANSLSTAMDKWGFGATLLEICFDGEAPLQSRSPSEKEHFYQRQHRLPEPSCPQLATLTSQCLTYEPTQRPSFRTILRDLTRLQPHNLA
Experimental: HEK293T cells were transfected with NanoLuc-TYK2 JH2 Fusion Vector (Promega, customized) using Trans-IT reagent (Mirus, #MIR2700) and incubated for overnight in 37° C. incubator. […] Add 85 µL of cell suspension into white, polypropylene, 96-well plates (Corning, #3600). 90 µL of cells were used for no tracer control samples. 5 µL of diluted NanoBRET K10 tracer (Promega, #CS1810C122) were added to cells to a final concentration of 0.5 µM. Test compounds were diluted into DMSO, and then phenol-free opti-MEM to 10X of final concentration. 10 µL of diluted compounds were added into each well. The cells were incubated with test compound and tracer for 2 hours. 3XNanoBRET® Nano-Glo® Substrate and Extracellular NanoLuc® Inhibitor mixture were prepared and 50 µL of the mixture were added into the wells and mixed. […] NanoBRET signal was determined by using the ratio of acceptor signal and donor signal.

[4] = target: human JAK3 (Homo sapiens (Human), UniProt P52333); test: JAK3 TR-FRET kinase assay; assay type: biochemical; details: JAK3 0.0125 nM
human JAK3, sequence (P52333 whole entry): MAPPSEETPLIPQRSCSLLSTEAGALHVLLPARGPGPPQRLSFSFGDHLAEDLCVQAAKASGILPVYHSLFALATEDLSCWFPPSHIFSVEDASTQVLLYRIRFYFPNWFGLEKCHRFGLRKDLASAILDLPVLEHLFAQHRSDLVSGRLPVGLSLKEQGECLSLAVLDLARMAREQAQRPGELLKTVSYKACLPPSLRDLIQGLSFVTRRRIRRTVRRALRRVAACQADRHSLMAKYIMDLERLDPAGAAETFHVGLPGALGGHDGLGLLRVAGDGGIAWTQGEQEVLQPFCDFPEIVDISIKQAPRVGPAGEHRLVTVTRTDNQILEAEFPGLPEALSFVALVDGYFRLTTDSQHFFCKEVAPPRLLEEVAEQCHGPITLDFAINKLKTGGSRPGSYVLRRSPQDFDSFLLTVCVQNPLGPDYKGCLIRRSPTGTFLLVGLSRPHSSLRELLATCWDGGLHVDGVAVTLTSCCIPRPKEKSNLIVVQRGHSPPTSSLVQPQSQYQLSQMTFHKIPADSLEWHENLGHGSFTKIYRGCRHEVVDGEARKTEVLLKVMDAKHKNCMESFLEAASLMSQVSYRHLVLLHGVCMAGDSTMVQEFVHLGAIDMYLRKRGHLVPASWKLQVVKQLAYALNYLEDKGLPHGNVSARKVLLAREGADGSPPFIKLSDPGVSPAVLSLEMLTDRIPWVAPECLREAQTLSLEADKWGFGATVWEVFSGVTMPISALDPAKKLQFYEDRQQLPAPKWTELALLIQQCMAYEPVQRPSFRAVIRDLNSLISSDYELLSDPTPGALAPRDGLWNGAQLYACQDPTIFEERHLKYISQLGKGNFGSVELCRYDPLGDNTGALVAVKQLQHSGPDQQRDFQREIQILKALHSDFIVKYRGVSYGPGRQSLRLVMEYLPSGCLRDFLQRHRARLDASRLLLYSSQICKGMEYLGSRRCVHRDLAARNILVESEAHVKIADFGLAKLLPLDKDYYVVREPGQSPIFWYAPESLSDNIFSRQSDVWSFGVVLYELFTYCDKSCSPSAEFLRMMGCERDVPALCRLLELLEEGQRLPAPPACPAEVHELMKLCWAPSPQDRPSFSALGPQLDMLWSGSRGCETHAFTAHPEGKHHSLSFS

[5] = HEK293T cells, Table 19, read-out: IC50 (nM), TYK2 activity

human JAK1, sequence (P23458 whole entry): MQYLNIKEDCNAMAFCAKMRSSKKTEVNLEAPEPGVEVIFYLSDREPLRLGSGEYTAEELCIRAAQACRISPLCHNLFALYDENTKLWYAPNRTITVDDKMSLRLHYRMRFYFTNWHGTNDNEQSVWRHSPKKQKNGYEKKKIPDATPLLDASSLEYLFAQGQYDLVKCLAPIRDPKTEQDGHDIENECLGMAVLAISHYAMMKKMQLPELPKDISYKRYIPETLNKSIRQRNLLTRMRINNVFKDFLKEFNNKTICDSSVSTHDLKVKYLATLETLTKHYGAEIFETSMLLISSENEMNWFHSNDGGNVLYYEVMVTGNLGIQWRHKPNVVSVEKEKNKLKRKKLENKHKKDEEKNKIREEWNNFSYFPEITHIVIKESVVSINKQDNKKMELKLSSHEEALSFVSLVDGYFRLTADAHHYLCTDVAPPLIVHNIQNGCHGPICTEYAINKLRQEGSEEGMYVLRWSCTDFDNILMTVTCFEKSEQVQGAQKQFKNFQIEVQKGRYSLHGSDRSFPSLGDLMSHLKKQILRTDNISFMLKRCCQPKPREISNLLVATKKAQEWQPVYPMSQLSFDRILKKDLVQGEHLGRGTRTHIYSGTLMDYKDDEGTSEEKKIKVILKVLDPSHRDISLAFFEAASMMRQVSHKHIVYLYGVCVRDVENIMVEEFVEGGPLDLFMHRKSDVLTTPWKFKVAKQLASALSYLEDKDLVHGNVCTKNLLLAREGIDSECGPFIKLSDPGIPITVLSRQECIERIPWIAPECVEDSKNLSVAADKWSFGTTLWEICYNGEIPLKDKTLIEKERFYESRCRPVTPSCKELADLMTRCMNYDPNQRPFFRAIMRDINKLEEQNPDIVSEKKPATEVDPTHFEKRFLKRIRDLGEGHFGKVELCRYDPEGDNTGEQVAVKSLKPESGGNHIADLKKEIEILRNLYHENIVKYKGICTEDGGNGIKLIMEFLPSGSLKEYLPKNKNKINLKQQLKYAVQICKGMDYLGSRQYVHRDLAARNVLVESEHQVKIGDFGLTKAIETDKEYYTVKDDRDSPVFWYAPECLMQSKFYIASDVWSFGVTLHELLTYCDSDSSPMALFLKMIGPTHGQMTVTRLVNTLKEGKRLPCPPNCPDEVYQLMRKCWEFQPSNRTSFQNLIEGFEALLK

Row | Structure (SMILES) | IC50 [1] [nM] | IC50 [2] [nM] | IC50 ([3]; Table 20, read-out: TYK2 IC50) [nM] | IC50 [4] [nM] | IC50 [3, 5] [nM]
1 | CCC(=O)c1cnc(Nc2cc(CNC)ncn2)cc1Nc1cccc(-c2ncn(C)n2)c1OC [Compound 9MMMM] | ≥ 500 | ≥ 500 | 5 to 50 | ≥ 500 | –
2 | CCC(=O)c1cnc(Nc2ccn(CCN3CCCC3)n2)cc1Nc1cccc(-c2ncn(C)n2)c1OC [Compound 21C] | ≥ 500 | ≥ 500 | 5 to 50 | ≥ 500 | –
3 | CCC(=O)c1cnc(Nc2ccc(CN(C)C3CC(F)(F)C3)cn2)cc1Nc1cccc(-c2ncn(C)n2)c1OC [Compound 9EEE] | ≥ 500 | ≥ 500 | < 5 | ≥ 500 | –
4 | CCC(=O)c1cnc(Nc2ccc(OC3CCN(C)CC3)nn2)cc1Nc1cccc(-c2ncn(C)n2)c1OC [Compound 18EE] | ≥ 500 | ≥ 500 | < 5 | ≥ 500 | –
5 | CCC(=O)c1cnc(Nc2cnc(O[C@H]3CN(C)CC3(F)F)cn2)cc1Nc1cccc(-c2ncn(C)n2)c1OC [Compound 18RRR] | ≥ 500 | ≥ 500 | 5 to 50 | ≥ 500 | –
6 | CCC(=O)c1cnc(Nc2cnc(O[C@H]3CN(C)C[C@@H]3F)cn2)cc1Nc1cccc(-c2ncn(C)n2)c1OC [Compound 18AAA] | ≥ 500 | ≥ 500 | 5 to 50 | ≥ 500 | –
7 | CCC(=O)c1cnc(Nc2cc(C(=O)O)ccn2)cc1Nc1cccc(-c2ncn(C)n2)c1OC [Compound 8E] | ≥ 500 | ≥ 500 | ≥ 500 | ≥ 500 | –
8 | COc1cccc(Nc2cc(Nc3cccc(-c4ncn(C)n4)c3OC)c(C(C)=O)cn2)n1 [Compound 7K] | – | – | – | – | < 5
9 | CCC(=O)c1cnc(Nc2cnc(CN(C)C)cn2)cc1Nc1cccc(-c2ncn(C)n2)c1OC [Compound 9SSS] | ≥ 500 | ≥ 500 | < 5 | ≥ 500 | –
10 | CCC(=O)c1cnc(Nc2cnc(O[C@@H]3CCN(C)C3)cn2)cc1Nc1cccc(-c2ncn(C)n2)c1OC [Compound 18UU] | ≥ 500 | ≥ 500 | 5 to 50 | ≥ 500 | –
11 | CCC(=O)c1cnc(Nc2ncc(OC3COC3)cc2F)cc1Nc1cccc(-c2ncn(C)n2)c1OC [Compound 18BBBB] | ≥ 500 | ≥ 500 | 5 to 50 | ≥ 500 | –
12 | CCC(=O)c1cnc(Nc2ccc(OCCCN3CCCC3)nn2)cc1Nc1cccc(-c2ncn(C)n2)c1OC [Compound 18DD] | ≥ 500 | ≥ 500 | < 5 | ≥ 500 | –
13 | CCC(=O)c1cnc(Nc2ccc(CS(C)(=O)=O)cn2)cc1Nc1nccc(-c2ncn(C)n2)c1OC [Compound 13M] | ≥ 500 | 50 to 500 | < 5 | ≥ 500 | –
14 | CCC(=O)c1cnc(Nc2ccn(S(=O)(=O)C3CC3)n2)cc1Nc1cccc(-c2ncn(C)n2)c1OC [Compound 21D] | ≥ 500 | ≥ 500 | 5 to 50 | ≥ 500 | –
15 | CCC(=O)c1cnc(Nc2ccc(OC(C)(C)C(=O)O)c(C)n2)cc1Nc1cccc(-c2ncn(C)n2)c1OC [Compound 18L] | ≥ 500 | 50 to 500 | ≥ 500 | 50 to 500 | –
16 | CCC(=O)c1cnc(Nc2ccc(C(C)NCC(F)F)cn2)cc1Nc1cccc(-c2ncn(C)n2)c1OC (stereo not drawn) [Compound 9AA] | ≥ 500 | 50 to 500 | < 5 | 50 to 500 | –
17 | COc1c(Nc2cc(Nc3cc(C#N)ccn3)ncc2C(C)=O)cccc1-c1ncn(C)n1 [Compound 7F] | – | – | – | – | < 5
18 | COc1c(Nc2cc(Nc3cc(C)ncn3)ncc2C(C)=O)cccc1-c1ncn(C)n1 [Compound 7Q] | – | – | – | – | < 5
19 | COc1c(Nc2cc(NC(=O)C3CCC3)ncc2C(C)=O)cccc1-c1ncn(C)n1 [Compound 1J] | – | – | – | – | 5 to 50
20 | COc1c(Nc2cc(Nc3cccc(C)n3)ncc2C(C)=O)cccc1-c1ncn(C)n1 [Compound 7J] | – | – | – | – | < 5
21 | COc1c(Nc2cc(N)ncc2C(C)=O)cccc1-c1ncn(C)n1 [Compound 2, 1-(6-amino-4-((2-methoxy-3-(1-methyl-1H-1,2,4-triazol-3-yl)phenyl)amino)pyridin-3-yl)ethan-1-one] | – | – | – | – | ≥ 500
22 | COC(=O)c1cnc(NC(=O)C2CC2)cc1Nc1cccc(-c2ncn(C)n2)c1OC [Compound 3, methyl 6-(cyclopropanecarboxamido)-4-((2-methoxy-3-(1-methyl-1H-1,2,4-triazol-3-yl)phenyl)amino)nicotinate] | – | – | – | – | < 5
23 | COc1c(Nc2cc(NC(=O)[C@H]3C[C@H]3F)ncc2C(C)=O)cccc1-c1ncn(C)n1 [Compound 1L] | – | – | – | – | 5 to 50
24 | COc1c(Nc2cc(Nc3ccccn3)ncc2C(C)=O)cccc1-c1ncn(C)n1 [Compound 7C] | – | – | – | – | < 5
25 | COc1c(Nc2cc(Nc3ncccn3)ncc2C(C)=O)cccc1-c1ncn(C)n1 [Compound 7O] | – | – | – | – | 50 to 500
26 | COc1c(Nc2cc(NC(=O)N(C)C)ncc2C(C)=O)cccc1-c1ncn(C)n1 [Compound 1P] | – | – | – | – | 50 to 500
27 | COc1c(Nc2cc(NC(=O)OC(C)(C)C)ncc2C(C)=O)cccc1-c1ncn(C)n1 [Compound 1D] | – | – | – | – | 50 to 500

Row | Structure (SMILES) | IC50 [1] [nM] | IC50 [2] [nM] | IC50 ([3]; Table 20, read-out: TYK2 IC50) [nM] | IC50 [4] [nM] | IC50 [3, 5] [nM]
28 | COc1c(Nc2cc(Nc3ncccc3F)ncc2C(C)=O)cccc1-c1ncn(C)n1 [Compound 7G] | – | – | – | – | 5 to 50
29 | COC(=O)Nc1cc(Nc2cccc(-c3ncn(C)n3)c2OC)c(C(C)=O)cn1 [Compound 1N] | – | – | – | – | 50 to 500
30 | CCC(=O)Nc1cc(Nc2cccc(-c3ncn(C)n3)c2OC)c(C(C)=O)cn1 [Compound 1H] | – | – | – | – | 5 to 50
31 | COc1c(Nc2cc(NC(C)=O)ncc2C(C)=O)cccc1-c1ncn(C)n1 [Compound 1G] | – | – | – | – | 5 to 50
32 | COc1c(Nc2cc(NC(=O)C3CC3)ncc2C(C)=O)cccc1-c1ncn(C)n1 [Compound 1A, N-(5-acetyl-4-((2-methoxy-3-(1-methyl-1H-1,2,4-triazol-3-yl)phenyl)amino)pyridin-2-yl)cyclopropanecarboxamide] | – | – | – | – | < 5
33 | COc1c(Nc2cc(NC(=O)CN(C)C)ncc2C(C)=O)cccc1-c1ncn(C)n1 [Compound 1M] | – | – | – | – | 50 to 500
34 | COc1ccnc(Nc2cc(Nc3cccc(-c4ncn(C)n4)c3OC)c(C(C)=O)cn2)c1 [Compound 7E] | – | – | – | – | < 5
35 | CCC(=O)c1cnc(Nc2ccc(S(=O)(=O)N(C)C)cn2)cc1Nc1cccc(-c2ncn(C)n2)c1OC [Compound 13D] | ≥ 500 | ≥ 500 | – | ≥ 500 | –
36 | COc1c(Nc2cc(Nc3ccnc(C)n3)ncc2C(C)=O)cccc1-c1ncn(C)n1 [Compound 7R] | – | – | – | – | < 5
37 | COc1c(Nc2cc(NC(=O)[C@@H]3C[C@@H]3F)ncc2C(C)=O)cccc1-c1ncn(C)n1 [Compound 1K] | – | – | – | – | < 5
38 | CCC(=O)c1cnc(Nc2ccc(CN3CCN(C)CC3)nn2)cc1Nc1cccc(-c2ncn(C)n2)c1OC [Compound 9PPP] | – | 50 to 500 | 5 to 50 | – | –
39 | CCCC(=O)Nc1cc(Nc2cccc(-c3ncn(C)n3)c2OC)c(C(C)=O)cn1 [Compound 1I] | – | – | – | – | < 5
40 | COc1c(Nc2cc(Nc3ccn(C)n3)ncc2C(C)=O)cccc1-c1ncn(C)n1 [Compound 7U] | – | – | – | – | < 5
41 | COc1c(Nc2cc(Nc3cnn(C)c3)ncc2C(C)=O)cccc1-c1ncn(C)n1 [Compound 7T] | – | – | – | – | 50 to 500
42 | COc1c(Nc2cc(Nc3cc(C)c(Cl)cn3)ncc2C(C)=O)cccc1-c1ncn(C)n1 [Compound 7M] | – | – | – | – | < 5
43 | COc1c(Nc2cc(Nc3ncc(F)cn3)ncc2C(C)=O)cccc1-c1ncn(C)n1 [Compound 7P] | – | – | – | – | 50 to 500
44 | CCOc1ccc(Nc2cc(Nc3cccc(-c4ncn(C)n4)c3OC)c(C(C)=O)cn2)nn1 [Compound 7S] | – | – | – | – | < 5
45 | COc1c(Nc2cc(Nc3cc(C)ccn3)ncc2C(C)=O)cccc1-c1ncn(C)n1 [Compound 7D] | – | – | – | – | < 5
46 | CCC(=O)c1cnc(Nc2cnc(C(F)(F)CN)cn2)cc1Nc1cccc(-c2ncn(C)n2)c1OC [Compound 19A, 1-(6-((5-(2-amino-1,1-difluoroethyl)pyrazin-2-yl)amino)-4-((2-methoxy-3-(1-methyl-1H-1,2,4-triazol-3-yl)phenyl)amino)pyridin-3-yl)propan-1-one] | – | – | 5 to 50 | – | –
47 | CCC(=O)c1cnc(Nc2cnc(O[C@@H]3CCN(CC)C3)cn2)cc1Nc1cccc(-c2ncn(C)n2)c1OC [Compound 18DDD] | – | – | 5 to 50 | – | –
48 | COc1c(Nc2cc(Nc3cc(C)c(F)cn3)ncc2C(C)=O)cccc1-c1ncn(C)n1 [Compound 7L] | – | – | – | – | < 5
49 | COc1c(Nc2cc(Nc3ccc(N4CCOCC4)cn3)ncc2C(C)=O)cccc1-c1ncn(C)n1 [Compound 7N] | – | – | – | – | < 5
50 | COc1ccc(Nc2cc(Nc3cccc(-c4ncn(C)n4)c3OC)c(C(C)=O)cn2)nc1 [Compound 7I] | – | – | – | – | < 5
51 | COc1c(Nc2cc(NC(=O)CN3CCOCC3)ncc2C(C)=O)cccc1-c1ncn(C)n1 [Compound 1O] | – | – | – | – | 50 to 500
52 | COc1c(Nc2cc(Nc3ccc(F)cc3)ncc2C(C)=O)cccc1-c1ncn(C)n1 [Compound 7B] | – | – | – | – | ≥ 500
53 | COc1c(Nc2cc(Nc3ccc(F)cn3)ncc2C(C)=O)cccc1-c1ncn(C)n1 [Compound 7H] | – | – | – | – | < 5
54 | CCC(=O)c1cnc(Nc2cc(C(C)NC)ncn2)cc1Nc1cccc(-c2ncn(C)n2)c1OC (stereo not drawn) [Compound 9PPPP] | – | 50 to 500 | – | – | –
